Patent US20260109674A1, “ALLOSTERIC MODULATION OF MUSCARINIC ACETYLCHOLINE RECEPTOR EFFICACY” (The University of Toledo, priority 2022, published 2026)
Read-outs that look alike come from different tables or passages of the source.

Assays:
[1] = system: wild-type zebrafish larvae; test: General locomotor assay in zebrafish larvae (locomotor activity, repetitive behaviors); assay type: in vivo, Danio rerio; conditions: Table 3; tested at 1 μM due to toxicity at 10 μM (footnote a)
Description: Five days post fertilization (dpf) zebrafish larvae were exposed to a range of nonlethal concentrations of the compounds in a 24-well plate with appropriate controls. The movement of each larval zebrafish was monitored with the Noldus behavior recording system (Noldus Information Technology, Leesburg VA) and quantified using EthoVision® XT 15 software (Noldus Information Technology, Leesburg VA). The plate was immediately placed in the incubator for a 30-minute exposure period. After 30 minutes, the plate was transferred to the Noldus system and swimming behavior was recorded in 100% light for 30 minutes to measure spontaneous swimming behavior. The light was switched off for 10 minutes (dark period) and then switched on for 10 minutes (light period), which was then repeated for two additional cycles. In total, the larvae were exposed to three cycles of alternating 10-minute dark and light periods (100% darkness-to-100% light). […]
All data for exposure and the behavioral end points were analyzed by one-way ANOVA (factor: drug conc) followed by a Dunnett's multiple comparisons test for post hoc significance between drug concentration and control group. Statistically significant differences are noted as follows: *, p<0.05; **, p<0.01; ***, p<0.001.

[2] = target: T1, M1 muscarinic receptors expressed in CHO cells (Homo sapiens, UniProt P11229); test: [3H]-arachidonic acid release screen with and without ACh and modulator; assay type: cell-based; conditions: for Modulation of ACh activity (in words): [3H]AA release, modulator 10 μM
T1 construct: expressed in transfected cells; host or cells: CHO (CHO-hM1, stably transfected)
T1 sequence (P11229 1-460): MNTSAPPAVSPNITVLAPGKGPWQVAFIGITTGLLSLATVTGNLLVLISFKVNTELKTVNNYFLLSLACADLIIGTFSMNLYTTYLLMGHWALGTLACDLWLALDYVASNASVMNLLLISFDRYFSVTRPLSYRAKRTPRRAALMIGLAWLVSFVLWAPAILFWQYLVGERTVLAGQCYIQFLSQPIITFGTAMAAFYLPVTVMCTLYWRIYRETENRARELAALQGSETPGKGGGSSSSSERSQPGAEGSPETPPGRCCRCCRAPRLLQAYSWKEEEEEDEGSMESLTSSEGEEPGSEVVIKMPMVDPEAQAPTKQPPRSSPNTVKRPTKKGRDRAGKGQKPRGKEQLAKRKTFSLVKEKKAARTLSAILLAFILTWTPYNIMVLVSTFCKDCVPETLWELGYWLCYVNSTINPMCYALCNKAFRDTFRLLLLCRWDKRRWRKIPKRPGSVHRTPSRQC
Description: CHO cells expressing human M1 muscarinic receptors were cultured at 37° C. in a 5% CO2 atmosphere in F12 medium supplemented with 5% fetal bovine serum, 100 units/mL penicillin, and 100 μg/mL streptomycin.
Measurement of [^3H]AA release was performed. Stably transfected CHO-hM1 or CHO-hM3 cells were seeded on 24-well plates (Greiner Bio-One GmbH, Frickenhausen, Germany) at a density of 5.0×10^4 cells/well in 0.5 ml of F-12 medium. Cells were incubated until they attached (approximately 3 h), followed by the addition of [^3H]AA to a final concentration of 0.05 μCi of [^3H]AA per well. The cells were then grown for 16 to 20 h before the assay was performed. [^3H]AA release was measured in Eagle's basal medium with 20 mM HEPES and 2 mg/ml fatty acid-free bovine serum albumin (EM-BSA). Cells were rinsed twice with EM-BSA, followed by the addition of EM-BSA media containing experimental agents and incubated for 1 h at 37° C. The assay was terminated by aspiration of the media, and the amount of [^3H]AA released was determined by liquid scintillation counting (Beckman-Coulter LS6500).
For some assays, pretreatment with phenoxybenzamine (POB) was employed, as indicated, to reduce the number of available receptors per cell. Stock POB was made up at 10 mM in ethanol and stored at −20° C. Each well was pretreated with 0.5 ml of the appropriate concentration in PBS with 1 mM CaCl2 and 1 mM MgCl2 (PBS++) for 30 min at 37° C., followed by 5 washes with PBS++. After pretreatment, the normal protocol was followed as above.
Tabulated [^3H]AA release data are represented as a fraction of maximal release in the presence of 100 μM ACh or as the fraction of release elicited by the appropriate concentration of ACh alone, as indicated dose-response curves were normalized to the maximal response of ACh without allosteric ligand. Some response curves were analyzed using the empirical four-parameter equation: […]
Disintegration per minute (DPM) values for a single compound were obtained in triplicate, and each compound was evaluated on three separate 24-well plates. The mean values for each condition from each of the three 24-well plates were used for the statistical analysis. The baseline mean was subtracted from each value, then normalized to the mean response produced by 100 μM ACh (set at 1.0). Statistical analyses were completed on the normalized values via one-way repeated measures ANOVA with Tukey's post hoc test. Statistically significant differences are noted as follows: *, p<0.05; **, p<0.01; ***, p<0.001.

[3] = system: wild-type zebrafish larvae; test: Maximum tolerated concentration (MTC) determination in zebrafish larvae; assay type: in vivo, Danio rerio; conditions: after 24-hour exposure; Table 3
Description: Determination of maximum tolerated concentration was completed by placing 5 days post fertilization (dpf) wild-type zebrafish larvae in a 24 well plate at 6 fish per well, and one compound concentration per well. […] Death was determined by the absence of heartbeat. Additional endpoints were used to assess toxicity at non-lethal concentrations such as startle capacity (poke stimulus), abnormalities in swimming behavior (loss of dorsoventral balance), and gross morphological deformities (bent body). […] The MTC determination was used to select three doses of each compound (low, medium, high dose) to be used in behavioral assays.

[4] = 10 μM modulator, 0.1 μM ACh, Table 1
[5] = 10 μM modulator, 100 μM ACh, Table 1

| Structure (SMILES) | Angular Velocity [1] | Total Distance Moved [1] | Variance of Turn Angle [1] | Ratio of response of ACh with modulator to response of ACh alone, 0.1 μM ACh [2] | Ratio of response of ACh with modulator to response of ACh alone, 100 μM ACh [2] | Stimulation of [3H]AA release, No ACh (fraction of stimulation above the control) ([2]; 10 μM modulator, Table 1) | Modulation of ACh activity (in words) [2] | Maximum Tolerated Concentration [3] [µM] | Ratio of response of ACh with modulator to response of ACh alone, 0.1 μM ACh [2, 4] | Ratio of response of ACh with modulator to response of ACh alone, 100 μM ACh [2, 5] |
| --- | --- | --- | --- | --- | --- | --- | --- | --- | --- | --- |
| CCCCc1oc2ccccc2c1C(=O)c1cc(I)c(OCC[N+](CC)(CC)CC)c(I)c1 [Compound 2, N-ethylamiodarone, reference compound] | 128.9 ± 18.5 % of control | 95.8 ± 11.0 % of control | 97.6 ± 10.3 % of control | 0.17 ± 0.04 | 0.50 ± 0.03 | 0.04 ± 0.02 | NAM of mAChR efficacy | 1 | – | – |
| CCCCc1oc2ccccc2c1C(=O)c1cc(I)c(O)c(I)c1 [Compound 3, reference compound] | 101.8 ± 19.2 % of control | 145.4 ± 21.7 % of control | 93.4 ± 9.4 % of control | – | – | 0.02 ± 0.00 | completely inactive | 3 | 0.42 ± 0.00 | 0.81 ± 0.07 |
| CCCCc1oc2ccccc2c1C(=O)c1ccc(O)cc1 [Compound 4, reference compound] | 105.7 ± 14.8 % of control | 56.7 ± 9.3 % of control | 115.8 ± 12.4 % of control | 0.49 ± 0.09 | 0.72 ± 0.04 | 0.03 ± 0.02 | completely inactive | 0.3 | – | – |
| COc1c(F)cc(CN2C(=O)C(=O)c3ccccc32)cc1F [Compound 8g, 1-(3,5-difluoro-4-methoxybenzyl)indoline-2,3-dione] | – | – | – | – | – | 0.03 ± 0.01 | – | 30 | 1.33 ± 0.03 | 0.94 ± 0.02 |
| COc1ccc(CN2C(=O)C(=O)c3ccccc32)cc1F [Compound 8h, 1-(3-fluoro-4-methoxybenzyl)indoline-2,3-dione] | – | – | – | – | – | 0.04 ± 0.01 | – | 30 | 1.17 ± 0.02 | 1.03 ± 0.01 |
| O=C1C(=O)N(Cc2cc(F)c(F)c(F)c2)c2ccccc21 [Compound 8i, 1-(3,4,5-trifluorobenzyl)indoline-2,3-dione] | – | – | – | – | – | 0.07 ± 0.01 | – | 10 | 1.39 ± 0.06 | 1.05 ± 0.02 |
